Results from patent publication US4447608A, “Anti-cancer quinazoline derivatives” (priority 1979, dated 1984).
Read-outs that look alike come from different tables or passages of the source.

What was measured:
TS = molecular target: T1, TS (Mus musculus, UniProt P07607); assay: Inhibition of TS purified >2,000 fold from L1210 cells by affinity chromatography; type: biochemical; details: for Relative potency ([drawing 17], I50 relative to CB 3717): relative to CB 3717 control, higher = weaker; for IC50: second results table, TS purified >2,000 fold, read-out: TS I50
T1 construct: endogenous in cells
T1 sequence (P07607 whole entry): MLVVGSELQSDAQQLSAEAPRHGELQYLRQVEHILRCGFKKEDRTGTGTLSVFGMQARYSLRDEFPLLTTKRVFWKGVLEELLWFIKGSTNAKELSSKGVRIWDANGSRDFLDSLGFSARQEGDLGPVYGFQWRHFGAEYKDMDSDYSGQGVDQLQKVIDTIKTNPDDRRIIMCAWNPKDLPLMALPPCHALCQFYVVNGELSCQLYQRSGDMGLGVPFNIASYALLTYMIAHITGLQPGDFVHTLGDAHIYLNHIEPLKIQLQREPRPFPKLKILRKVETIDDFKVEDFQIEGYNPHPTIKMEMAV

L1210 cells [1] = assay: Growth inhibition of L1210 cells in suspension culture, 48 h count; type: cell-based; details: Mus musculus
Protocol: (§1) Cells were diluted to 10^5 /ml and additions (diluted in medium and sterilised in Millipore filtration) made prior to starting each incubation. Cell counts were performed after 24 and 48 hours using an improved Neubauer haemocytometer.

L1210 cells [2] = assay: Reversal of toxicity to L1210 cells in culture by thymidine; type: cell-based, mouse; details: second results table; L1210
Protocol: as §1, with “L1210 and L1210:R71 cells were grown in continuous suspension culture in RPMI 1640 medium containing 10% horse serum (Flow Laboratories, Irvine, Scotland; UK). Cells” for “Cells”

[3] = molecular target: DIHYDROFOLATE REDUCTASE (DHFR); assay: Inhibition of dihydrofolate reductase (DHFR) purified by affinity chromatography; type: biochemical; details: Table 1
Description: (§2) The cytosol of log phase L1210 cells harvested from animals was partially purified for TS I50 and Ki determinations to remove from the preparation a phosphatase which degrades dUMP to deoxyuridine. (The I50 was defined as the inhibitor concentration necessary to reduce the reaction rate of TS by 50%). DHFR was purified by affinity chromatography and Ki determinations performed.

L1210:R71 cells = assay: Growth inhibition of methotrexate-resistant L1210:R71 cells in suspension culture, 48 h count; type: cell-based, mouse; details: Table 2; for IC50: Mus musculus, MTX-resistant, 48 hour count reduced to 50% of control, read-out: ID50 L1210:R71
Protocol: The compounds of Example 2 were evaluated in vitro as inhibitors as TS and cell growth and in vivo against the L1210 tumour. Since methotrexate (MTX) resistance is an important problem in cancer therapy, the compounds of the present invention were also investigated with this in mind.
as §1, with “L1210 and L1210:R71 cells were grown in continuous suspension culture in RPMI 1640 medium containing 10% horse serum (Flow Laboratories, Irvine, Scotland; UK). Cells” for “Cells”

[4] = molecular target: T2, THYMIDYLATE SYNTHETASE (TS) (Mus musculus, UniProt P07607); assay: Inhibition of thymidylate synthetase (TS), partially purified L1210 cytosol; type: biochemical; details: Table 1, inhibitor concentration reducing TS reaction rate by 50%, read-out: THYMIDYLATE SYNTHETASE I50
T2 construct: The cytosol of log phase L1210 cells harvested from animals was partially purified for TS I50 and Ki determinations; endogenous in cells; host or cells: L1210 cells harvested from animals (cytosol, partially purified)
T2 sequence (P07607 whole entry): as above
Description: as §2

[5] = L1210, 48 h, second results table, read-out: ID50 L1210 (Tissue culture)
[6] = L1210, Table 2, 48 hour count reduced to 50% of control, read-out: ID50 L1210

Relative potency ([drawing 17], I50 relative to CB 3717) (TS)	IC50 (TS) [µM]	IC50 (L1210 cells [1]; [5]) [µM]	Compound	also measured
7.6	0.31	> 300	Nc1nc2ccc(CN(CC3CO3)c3ccc(C(=O)N[C@@H](CCC(=O)O)C(=O)O)cc3)cc2c(=O)[nH]1 (stereo partly drawn) [CB 3736]	–
1.1	0.047	24	C#CCN(Cc1ccc2nc(N)[nH]c(=O)c2c1)c1ccc(C(=O)N[C@@H](CCC(=O)O)C(=O)O)c(C)c1 [CB 3738]	–
–	–	17	C#CCN(Cc1ccc2nc(N)[nH]c(=O)c2c1)c1ccc(C(=O)N[C@@H](CCC(=O)O)C(=O)O)c(Cl)c1 [CB 3739]	–
15.6	0.094	5.4	N#CCN(Cc1ccc2nc(N)[nH]c(=O)c2c1)c1ccc(C(=O)N[C@@H](CCC(=O)O)C(=O)O)cc1 [CB 3726]	–
1.6	0.066	> 100	C#CCN(Cc1ccc2nc(N)[nH]c(=O)c2c1)c1ccc(C(=O)N[C@@H](CC(=O)O)C(=O)O)cc1 [CB 3737]	–
–	–	100	C#CCN(Cc1ccc2nc(N)[nH]c(=O)c2c1)c1ccc(C(=O)N[C@@H](CC(=O)OCC)C(=O)OCC)cc1 [CB 3748]	–
100	1.4	27	Nc1nc2ccc(CN(CC(=O)O)c3ccc(C(=O)N[C@@H](CCC(=O)O)C(=O)O)cc3)cc2c(=O)[nH]1 [CB 3728]	Reversal by thymidine (in culture) (L1210 cells [2]): yes
> 62.5	> 3	87	NC(=O)CN(Cc1ccc2nc(N)[nH]c(=O)c2c1)c1ccc(C(=O)N[C@@H](CCC(=O)O)C(=O)O)cc1 [CB 3734]	Reversal by thymidine (in culture) (L1210 cells [2]): yes

More lines, now with the values behind:

Compound	Relative potency ([drawing 17], I50 relative to CB 3717) (TS)	IC50 (TS) [µM]	IC50 (L1210 cells [1]; [5]) [µM]	also measured
Nc1nc(O)c2cc(CN(CC(=O)c3ccccc3)c3ccc(C(=O)N[C@@H](CCC(=O)O)C(=O)O)cc3)ccc2n1 [CB 3733, N-(4-(N-((2-amino-4-hydroxy-6-quinazolinyl)methyl)phenacylamino)benzoyl)-L-glutamic acid]	40	1.64	100	–
Nc1nc(O)c2cc(CN(CCF)c3ccc(C(=O)N[C@@H](CCC(=O)O)C(=O)O)cc3)ccc2n1 [CB 3731, N-(4-(N-((2-amino-4-hydroxy-6-quinazolinyl)methyl)2-fluoroethylamino)benzoyl)-L-glutamic acid]	6.8	0.095	16	–
CCOC(=O)CC[C@H](NC(=O)c1ccc(N(Cc2ccc3nc(N)[nH]c(=O)c3c2)CC(O)CBr)cc1)C(=O)OCC (stereo partly drawn) [CB 3747]	–	–	> 100	–
C#CCN(Cc1ccc2nc(N)[nH]c(=O)c2c1)c1ccc(C(=O)N[C@@H](CCC(=O)OCC)C(=O)OCC)c(C)c1 [CB 3749]	–	–	100	–
C#CCN(Cc1ccc2nc(N)[nH]c(=O)c2c1)c1ccc(C(=O)N[C@@H](CCC(=O)OCC)C(=O)OCC)c(Cl)c1 [CB 3750]	–	–	18	–
CCOC(=O)CC[C@H](NC(=O)c1ccc(N(CC(=O)c2ccccc2)Cc2ccc3nc(N)nc(O)c3c2)cc1)C(=O)OCC [CB 3744, diethyl N-(4-(N-((2-amino-4-hydroxy-6-quinazolinyl)methyl)phenacylamino)benzoyl)-L-glutamate]	–	–	> 100	–
Nc1nc(O)c2cc(CN(Cc3c[nH]c(=O)[nH]c3=O)c3ccc(C(=O)N[C@@H](CCC(=O)O)C(=O)O)cc3)ccc2n1 [CB 3743, N-(4-(N-(2-amino-4-hydroxy-6-quinazolinyl)methyl-N-(5-uracilyl)methyl-amino)benzoyl)-L-glutamic acid]	> 22	> 1	4.7	Reversal by thymidine (in culture) (L1210 cells [2]): yes
CCOC(=O)CC[C@H](NC(=O)c1ccc(N(CCBr)Cc2ccc3nc(N)[nH]c(=O)c3c2)cc1)C(=O)OCC [CB 3746]	–	–	> 100	–
CCOC(=O)CC[C@H](NC(=O)c1ccc(N(CC(=O)OCC)Cc2ccc3nc(N)[nH]c(=O)c3c2)cc1)C(=O)OCC [CB 3745]	–	–	> 100	–
Nc1nc2ccc(CN(CCBr)c3ccc(C(=O)N[C@@H](CCC(=O)O)C(=O)O)cc3)cc2c(=O)[nH]1 [CB 3735]	23	1.1	52	–
Nc1nc(O)c2cc(CN(CCCO)c3ccc(C(=O)N[C@@H](CCC(=O)O)C(=O)O)cc3)ccc2n1 [CB 3729, N-(4-(N-((2-amino-4-hydroxy-6-quinazolinyl)methyl)-3-hydroxypropylamino)-benzoyl)-L-glutamic acid]	8.6	0.12	54	–
CCCN(Cc1ccc2nc(N)[nH]c(=O)c2c1)c1ccc(C(=O)N[C@@H](CCC(=O)O)C(=O)O)cc1 [Comparison, reference compound]	–	–	–	Ki [3]: 0.02 µM; IC50 (L1210 cells [1]; [6]): 33 µM; IC50 (L1210:R71 cells): 315 µM; CROSS RESISTANCE (ID50 L1210:R71/ID50 L1210) (L1210:R71 cells): 10; IC50 [4]: 0.17 µM
C=CCN(Cc1ccc2nc(N)nc(O)c2c1)c1ccc(C(=O)N[C@@H](CCC(=O)O)C(=O)O)cc1 [CB 3716, N-(4-(N-((2-amino-4-hydroxy-6-quinazolinyl)methyl)prop-2-enylamino)benzoyl)-L-glutamic acid]	–	–	–	Ki [3]: 0.027 µM; IC50 (L1210 cells [1]; [6]): 8.8 µM; IC50 (L1210:R71 cells): 100 µM; CROSS RESISTANCE (ID50 L1210:R71/ID50 L1210) (L1210:R71 cells): 11; IC50 [4]: 0.069 µM
C#CCN(Cc1ccc2nc(N)nc(O)c2c1)c1ccc(C(=O)N[C@@H](CCC(=O)OCC)C(=O)OCC)cc1 [CB 3721, diethyl N-(4-(N-((2-amino-4-hydroxy-6-quinazolinyl)methyl)prop-2-ynylamino)benzoyl)-L-glutamate]	> 62	> 3	52	–
